Read-outs that look alike come from different tables or passages of the source.

Broadly, the Tmax is the time from dosing to the highest level. As usually defined, the Cmax is the highest concentration seen after dosing.

Series [1] can be described thus: Palbociclib predose plasma concentrations (LC-MS/MS), Phase Ib study. It counts as in vivo, human. Particulars: for Palbociclib plasma concentration, C2D15 predose / Palbociclib plasma concentration, C1D15 predose / Palbociclib plasma concentration, C3D15 predose: 125 mg, Geomean (geoCV%).
Series [2] in a line: Adverse events (NCI CTCAE v5.0), Phase Ib study. It counts as in vivo, human. The following applies: for Patients with AE leading to discontinuation of the drug / Patients with AE leading to dose interruption of the drug / Patients with AE leading to dose reduction of the drug / Patients with AE related to the drug: all enrolled patients. An excerpt: Safety assessments consisted of monitoring and recording adverse events, including serious adverse events and adverse events of special interest, performing protocol-specified safety laboratory assessments, measuring protocol-specified vital signs, and conducting other protocol-specified tests that are deemed critical to the safety evaluation of the study. The adverse event severity grading scale for the NCI Common Terminology Criteria for Adverse Events (CTCAE) v5.0 was used for assessing adverse event severity. If daily dosing of ipatasertib was not tolerated, dosing with food might be used to alleviate gastrointestinal symptoms. […] For ipatasertib, with a starting dose of 300 mg, the first dose reduction was to 200 mg and the second down to 100 mg.

For series [3] the following is noted: cited from earlier work.
Series [4] can be described thus: Palbociclib PK parameters estimated with established popPK model. It counts as in vivo, human.
Series [5] relates to CYP3A. Particulars: 2021, cited from earlier work.
For series [6], the system named is CYP3A. The following applies: 2021, cited from earlier work. The source holds these as a separate data set.
The subject of series [7] is CYP3A. Also noted: method as in Jing et al., 2022. The following applies: ipatasertib 300 mg in the presence of palbociclib; ref Jing et al., 2022; cited from earlier work.
A short description of series [8]: Steady-state plasma PK of ipatasertib and M1 (LC-MS/MS, noncompartmental analysis), Phase Ib study. The format is in vivo, human. Particulars: for Tmax: 300 mg, median (range). How it is done: From Cycle 2 Day 1 onward, ipatasertib was taken orally and daily on Days 1–21 of each 28-day cycle. […] Additionally, fulvestrant 500 mg was given via intramuscular (IM) injection on Days 1 and 15 of Cycle 1, and then on Day 1 of each subsequent 28-day cycle. […] The initial safety follow-up extended through at least Day 15 of Cycle two for all patients. […] PK samples for ipatasertib and its major metabolite, M1 (G-037720), were collected at specified time points: 15 min pre-dose, 0.5, 1, 2, 3, 4, 6 h post-dose on Day 1 of Cycle 1, and Day 15 of Cycle 1, as well as 15 min pre-dose on Day 15 of Cycle 2 and 15 min pre-dose and 2 h post-dose on Day 15 of Cycle 3. […] The plasma concentrations of ipatasertib and its metabolite M1 was determined using a previously reported, validated liquid chromatography-tandem mass spectrometry assay (LC-MS/MS) ([Sutaria et al., 2022]). […] The sample analyses were performed at Labcorp Early Drug Development Laboratories, Inc. (Madison, WI, Unitd States) using a Shimadzu LC instrument equipped with an Agilent Polaris C8-A column (2.0 × 50 mm, 5 μm) interfaced with a Sciex API 4000 mass spectrometer operated in positive electrospray ionization mode. […] Noncompartmental PK analysis (NCA) was performed using the commercial software Phoenix WinNonlin (Certara Unitd States, Inc., Princeton, NJ, Unitd States, Version 8.1) to characterize the PK parameters of ipatasertib and M1 including maximal concentration (Cmax), time to maximal concentration (Tmax), area under the curve from time 0 to the last measurable concentration (AUC0-t). […] Non-compartmental PK analyses were performed using Phoenix(R) WinNonlin (Version 8.3, Certara). […] A linear mixed model with a fixed effect for treatment and a random effect for patients was used on the natural log-transformed PK parameters.

The mark [9] stands for this setting: additional patients for safety evaluation, N 9.
The mark [10] stands for this setting: palbociclib administered alone, ref U.S. Food and Drug Administration, 2014.
Where [11] appears, read: ipatasertib 100 mg single dose with itraconazole, ref Sane et al.
Setting [12] is: 300 mg QD with 125 mg palbociclib and fulvestrant vs alone.
Setting [13] is: C1D15 (with palbociclib and fulvestrant) / C1D1 (ipatasertib alone).
The mark [14] stands for this setting: human, plasma, oral, C1D1, ipatasertib 300 mg QD alone, N = 9, geometric mean (%geoCV).
Setting [15] is: ipatasertib coadministered with palbociclib and fulvestrant vs ipatasertib alone.

For `CC(=O)c1c(C)c2cnc(Nc3ccc(N4CCNCC4)cn3)nc2n(C2CCCC2)c1=O` [Palbociclib], in series [1] (additional patients for safety evaluation, N 6), the “Palbociclib plasma concentration, C2D15 predose” value is listed as 83.2 (19.4) ng/mL. For the same compound, in series [1] (setting [9]), the “Palbociclib plasma concentration, C1D15 predose” value is on record as 73.8 (20.7) ng/mL and the “Palbociclib plasma concentration, C3D15 predose” value is 67.5 (51.0) ng/mL. The “Palbociclib plasma concentration, C1D15 predose” value in series [1] (ipatasertib run-in group, N 9) was 69.9 (57.2) ng/mL. Moreover, in series [1] (ipatasertib run-in group, N 10), the “Palbociclib plasma concentration, C2D15 predose” value is reported as 76.9 (44.9) ng/mL and the “Palbociclib plasma concentration, C3D15 predose” value is 71.5 (43.5) ng/mL. The “Palbociclib plasma concentration, C2D15 predose” value in series [1] (total, N 16) is 79.2 (36.4) ng/mL. For the same compound, the “Palbociclib plasma concentration, C1D15 predose” value in series [1] (total, N 18) is 71.8 (40.8) ng/mL. For the same compound, the “Palbociclib plasma concentration, C3D15 predose” value in series [1] (total, N 19) is 69.6 (45.7) ng/mL. Besides, the Cmin entry in series [1] (palbociclib in this study with ipatasertib and fulvestrant (summary of Table 3)) is recorded as “approximately 70 ng/mL”. In addition, in series [2], the “Patients with AE leading to discontinuation of the drug” value was 1 (5%) Number of patients (%), the “Patients with AE leading to dose interruption of the drug” value is recorded as 13 (65%) Number of patients (%), the “Patients with AE leading to dose reduction of the drug” value is recorded as 10 (50%) Number of patients (%) and the “Patients with AE related to the drug” value is on record as 20 (100%) Number of patients (%). Further, in series [2] (triplet regimen, 20 patients), the “AE considered related to the drug: anemia” value is 40%, the “AE considered related to the drug: asthenia” value worked out at 25%, the “AE considered related to the drug: diarrhea” value was 30% and the “AE considered related to the drug: nausea” value is on record as 40%. Also, in series [2] (triplet regimen, 20 patients), the “AE considered related to the drug: neutropenia” value is reported as 45%, the “AE considered related to the drug: neutrophil count decreased” value turned out to be 40%, the “AE considered related to the drug: platelet count decreased” value turned out to be 30% and the “AE considered related to the drug: stomatitis” value is on record as 25%. In addition, in series [3] (setting [10]), the “AUC0-24,ss” value is 1982 ng·h/mL and the “Cmax,ss” value is reported as 116 ng/mL. Besides, the AUC over 24 h dosing interval at steady state in series [4] (human, plasma, oral, 125 mg, read-out: AUC0-24,ss (popPK-estimated)) is 2600 ng·h/mL. In series [4] (palbociclib 125 mg with ipatasertib and fulvestrant, geometric mean (%CV)), the “Cmax,ss (popPK-estimated)” value is 124 ng/mL.

As for `CC(C)NC[C@@H](C(=O)N1CCN(c2ncnc3c2[C@H](C)C[C@H]3O)CC1)c1ccc(Cl)cc1` [Ipatasertib], the CYP3A inhibition classification result with CYP3A [5] (in vitro, ref Malhi et al.) is given as “mild to moderate CYP3A inhibitor”. Moreover, the CYP3A4 substrate classification result in the series with CYP3A [5] (ref Sane et al.) is “sensitive substrate”. Moreover, in series [2], the “Patients with AE leading to discontinuation of the drug” value was 1 (5%) Number of patients (%), the “Patients with AE leading to dose interruption of the drug” value was 16 (80%) Number of patients (%), the “Patients with AE leading to dose reduction of the drug” value is 9 (45%) Number of patients (%) and the “Patients with AE related to the drug” value is listed as 20 (100%) Number of patients (%). Further, in series [2] (triplet regimen, 20 patients), the “AE considered related to the drug: anemia” value worked out at 30%, the “AE considered related to the drug: diarrhea” value was 75%, the “AE considered related to the drug: fatigue” value is reported as 25% and the “AE considered related to the drug: nausea” value stood at 70%. Moreover, in series [2] (triplet regimen, 20 patients), the “AE considered related to the drug: neutropenia” value was found to be 30%, the “AE considered related to the drug: neutrophil count decreased” value amounted to 25%, the “AE considered related to the drug: platelet count decreased” value is 30% and the “AE considered related to the drug: rash” value is 35%. Further, the “AE considered related to the drug: vomiting” value in series [2] (triplet regimen, 20 patients) is 45%. For the same compound, in the series on CYP3A [6] (setting [11]), the “Increase in AUC0-∞ with itraconazole” value was 5.45 fold and the “Increase in Cmax with itraconazole” value was 2.26 fold. Further, the “Increase in AUC0-∞ of midazolam” value in the series with CYP3A [6] (single dose of ipatasertib 600 mg with midazolam, ref Malhi et al.) is given as 2.22 fold. In series [3] (background statement, no reference printed with the sentence), the Effective half-life result is “approximately 24 h”. Further, the “AUC0-24,ss” value in series [3] (ipatasertib 400 mg in other clinical studies, ref Yoshida et al., 2021) is given as 2,920 ng*hr/mL. For the same compound, the “Dose proportionality of exposure” value in series [3] (over the range of 200–800 mg, no reference printed with the sentence) is “dose-proportional”. Besides, in the series with CYP3A [7], the “PBPK-predicted increase in AUC” value is 48% and the “PBPK-predicted increase in Cmax” value is recorded as 23%. In series [8] (setting [12]), the “Increase in AUC0-24,ss” value was 1.68 fold and the “Increase in Cmax,ss” value was determined as 1.49 fold. Moreover, the “AUC0-24,ss at 300 mg in presence of palbociclib relative to 400 mg in other clinical studies” value in series [8] (3,637 vs 2,920 ng*hr/mL) is reported as “about 1.25 times”. Further, in series [8] (setting [13]), the “AUC0-24,ss geometric mean ratio (GMR) (90% CI)” value is reported as 1.68 (1.41, 2.00) and the “Cmax,ss geometric mean ratio (GMR) (90% CI)” value is 1.49 (1.18, 1.88). Further, the time to peak (Tmax) in series [8] (human, plasma, oral, C1D1, ipatasertib 300 mg QD alone) was found to be 1 h. Further, in series [8] (human, plasma, oral, C1D15, ipatasertib 300 mg QD with palbociclib and fulvestrant), the Tmax was found to be 1.9 h. In series [8] (setting [14]), this compound registered an AUC0-24,ss of 2170 ng·h/mL and a Cmax of 294 ng/mL. Further, in series [8] (setting [15]), the “Increase in AUC0-24,ss” value is 68% and the “Increase in Cmax,ss” value is 49%.

Regarding `C[C@]12CC[C@@H]3c4ccc(O)cc4C[C@@H](CCCCCCCCC[S+]([O-])CCCC(F)(F)C(F)(F)F)[C@H]3[C@@H]1CC[C@@H]2O` (some centres unmarked) [Fulvestrant], the “CYP3A inhibition / induction classification” value in the series with CYP3A [5] (ref U.S. Food and Drug Administration) is “not an inhibitor or inducer of CYP3A”. In series [2], the “Patients with AE leading to discontinuation of the drug” value is 0 Number of patients (%), the “Patients with AE leading to dose interruption of the drug” value is listed as 5 (25%) Number of patients (%), the “Patients with AE leading to dose reduction of the drug” value is on record as 0 Number of patients (%) and the “Patients with AE related to the drug” value is listed as 16 (80%) Number of patients (%). In series [2] (triplet regimen, 20 patients), the “AE considered related to the drug: anemia” value worked out at 10%, the “AE considered related to the drug: asthenia” value was 15% and the “AE considered related to the drug: hot flush” value is 10%.

Source of the values: paper PMC12511766 (Frontiers in Pharmacology, 2025).
